These results are taken from patent US12403129B2, “Isotope-enriched 3-amino-1-propanesulfonic acid derivatives for the treatment of cerebrovascular disease” (RISEN (SUZHOU) PHARMA TECH CO., LTD., priority 2021, dated 2025).

Common to all, as to assay type: in vivo, SD rats
Common to all, as to conditions: compared with the model group, p<0.05

Test [1] has as its system nitric oxide synthase (NOS). The test is described as follows: NOS activity in cerebral cortex, multiple cerebral infarction dementia rats. The method, then: (§1) Compound 4, 120 mg/kg, bid; D. Compound 4, 240 mg/kg, bid; E. Compound 4, 480 mg/kg, bid; F. Donepezil, 0.9 mg/kg. Compared with sham operation group: ### P<0.001; Compared with the model group: ** P<0.01, *** P<0.001.
(§2) 135 SPF grade SD rats (75 females, 60 males, weighing 200-220 g) were used. Anesthesia was performed by intraperitoneal injection of 3.5% chloral hydrate (350 mg/kg). After dorsal fixation, neck hair removal and iodophor disinfection, animals were cut along the middle of the neck to separate the right common carotid artery, external carotid artery and internal carotid artery. The common carotid artery was temporarily clamped by the artery clamp, the left external carotid artery was retrogradely punctured to the beginning of the left internal carotid artery with a pediatric scalp needle, and then 0.4 ml of embolic normal saline suspension was slowly injected with a syringe (the preparation of embolic normal saline suspension was as follows: blood was collected from the abdominal aorta of the same rat, dried naturally in a 37° C. incubator, and prepared for 80-200 minutes to form a blood clot; during application, 0.3 ml normal saline was added to every 10 mg blood clot), and the common carotid artery clamp was opened at the same time, then the external carotid artery was ligated and the skin was sutured. […]

The subject of test [2] is nerve cells (nucleus, mitochondria and synapse). The test is described as follows: Ultrastructure of nerve cells (transmission electron microscope), multiple cerebral infarction dementia rats. The procedure:
Compound 4, 120 mg/kg, bid; D. Compound 4, 240 mg/kg, bid; E. Compound 4, 480 mg/kg, bid; F. Donepezil, 0.9 mg/kg.
135 SPF grade SD rats (75 females, 60 males, weighing 200-220 g) were used. Anesthesia was performed by intraperitoneal injection of 3.5% chloral hydrate (350 mg/kg). After dorsal fixation, neck hair removal and iodophor disinfection, animals were cut along the middle of the neck to separate the right common carotid artery, external carotid artery and internal carotid artery. […]
The main pathological indexes included investigation of the improvement of learning and memory impairment in the dementia model animal by test compound using behavioral experimental methods such as Y maze, new object discrimination, Morris water maze and passive avoidance test (dark avoidance); investigation of the protective effect of test compound on mitochondria by detecting the content of ATP in hippocampus and cortex of rats; and investigation of levels of oxidative stress in the rat brain by measuring activity of superoxide dismutase (SOD, which is an oxygen free-radical scavenger), glutathione peroxidase (GSH-Px, which scavenges lipid peroxides induced by reactive oxygen species and —OH), nitric oxide synthase (NOS), malondialdehyde (MDA), and nitric oxide (NO). […] Expression of synaptic associated proteins SYP and PSD95 was detected by Western blotting. […]

Test [3] relates to nitric oxide (NO). Nature of the test: NO concentration in cerebral cortex, multiple cerebral infarction dementia rats. The procedure:
as §1, §2

SMILES strings stand for the structures.

As to `[2H]C([2H])(CCS(=O)(=O)O)NC(=O)[C@@H](N)C(C)C` [compound 4, 3-((L-valyl)amino)-3,3-dideuterium-1-propanesulfonic Acid], the NOS activity result in test [1] was “significantly reduced”. Besides, the “ultrastructure of nerve cells” value in test [2] is on record as “improved”. For the same compound, the NO content entry in test [3] is given as “significantly reduced”.
